Experiments:
Assay type in all cases: physicochemical
[1] = Δn (refractive index anisotropy) measurement, wedge-shaped liquid crystal cell; conditions: at 550 nm and 30° C.; for compounds liable to crystallize, estimated from extrapolated values of mixtures with other liquid crystals
Description: As a method of measuring the Δn, a method using a wedge-shaped liquid crystal cell described on page 202 of the Liquid Crystal Handbook (edited by Liquid Crystal Handbook Editing Committee, published by Maruzen Co., Ltd.) is generally used. In a case of a compound which is liable to crystallize, it is also possible to carry out evaluation with a mixture thereof with other liquid crystals and to estimate Δn from extrapolated values thereof.
The Δn corresponds to a measured value at a wavelength of 550 nm at 30° C.
Δn of each of the compounds was measured by a method using a wedge-shaped liquid crystal cell described on page 202 of the Liquid Crystal Handbook (edited by Liquid Crystal Handbook Editing Committee, published by Maruzen Co., Ltd.). In a case of the compound which is liable to crystallize, evaluation with a mixture thereof with other liquid crystals was carried out and Δn was estimated from extrapolated values thereof. The values in the table represent Δn's at 550 nm and 30° C.

[2] = Evaluation of light resistance (residual rate after ultraviolet irradiation); conditions: 5 mg in acetonitrile (20 ml), 1 cm quartz cell, ultraviolet light 3 J/cm^2; residual rate by liquid chromatography
Description: Each (5 mg) of the compounds was dissolved in acetonitrile (20 ml), sealed in a 1 cm quartz cell, and the quartz cell was irradiated with ultraviolet light under a condition of 3 J/cm^2 using EXECURE 3000-W manufactured by HOYA-SCHOTT CORPORATION, so that a residual rate of each compound was measured. Amounts (masses) of each compound before and after light irradiation were calculated using liquid chromatography. In Table 1, “A” represents a residual rate of equal to or greater than 80%, “B” represents a residual rate of equal to or greater than 50% and less than 80%, and “C” represents a residual rate of less than 50%.
The residual rate is a ratio of an amount (mass) of a compound after light irradiation to an amount (mass) of the compound before light irradiation, and can be calculated by the following expression. Residual rate (%)=(amount of compound after light irradiation/amount of compound before light irradiation)×100

[3] = Solubility measurement in ethyl methyl ketone; conditions: concentration in ethyl methyl ketone solution where the compound was completely dissolved
Description: Ethyl methyl ketone was added dropwise to each of the compounds, and a concentration (% by mass) of the compound in the obtained ethyl methyl ketone solution in a case where the compound was completely dissolved in the solution was measured as “solubility”. It is intended that a higher numerical value of solubility indicates excellent solubility in ethyl methyl ketone.

| SMILES | Δn [1] | Light resistance evaluation [2] | Solubility [3] |
| --- | --- | --- | --- |
| C=CC(=O)OCCCCOc1ccc(C#Cc2ccc(NC(=O)c3ccc(OCCCCOC(=O)C=C)cc3)cc2)cc1 [Compound a-1] | 0.289 | A (a residual rate of equal to or greater than 80%) | 5 % by mass |
| C=CC(=O)OCCCCOc1ccc(C#Cc2ccc(NC(=O)c3ccc(OCCCCOC(=O)C=C)cc3)c(C)c2)cc1 [Compound a-2] | 0.280 | A (a residual rate of equal to or greater than 80%) | 23 % by mass |
| C=CC(=O)OCCCCOc1ccc(C#Cc2ccc(NC(=O)c3ccc(OCCCCOC(=O)C=C)cc3)cc2C)cc1 [Compound a-3] | 0.282 | A (a residual rate of equal to or greater than 80%) | 19 % by mass |
| C=CC(=O)OCCCCOc1ccc(C#Cc2ccc(NC(=O)c3ccc(OCCCCOC(=O)C=C)cc3)c(OC)c2)cc1 [Compound a-4] | 0.301 | A (a residual rate of equal to or greater than 80%) | 20 % by mass |
| C=CC(=O)OCCCCOc1ccc(C#Cc2ccc(NC(=O)c3ccc(OCCCCOC(=O)C=C)cc3)c(F)c2)cc1 [Compound a-5] | 0.278 | A (a residual rate of equal to or greater than 80%) | 11 % by mass |
| C=CC(=O)OCCCCOc1ccc(C#Cc2ccc(NC(=O)c3ccc(OCCCCOC(=O)C=C)cc3)c(C(F)(F)F)c2)cc1 [Compound a-6] | 0.287 | A (a residual rate of equal to or greater than 80%) | 38 % by mass |
| C=CC(=O)OCCCCOc1ccc(C(=O)Nc2ccc(C#Cc3ccc4nc(SCCCCOC(=O)C=C)sc4c3)cc2C(F)(F)F)cc1 [Compound a-7] | 0.304 | A (a residual rate of equal to or greater than 80%) | 22 % by mass |
| C=CC(=O)OCCCCOc1ccc(C#Cc2ccc(C(=O)Nc3ccc(C#Cc4ccc(OCCCCOC(=O)C=C)cc4)cc3C(F)(F)F)cc2)cc1 [Compound a-8] | 0.370 | A (a residual rate of equal to or greater than 80%) | 22 % by mass |
| C=CC(=O)OCCCCOc1ccc(C(=O)Oc2ccc(C#Cc3ccc(CCCCCCC)cc3)cc2)cc1 [Compound b-1, reference compound] | 0.220 | C (a residual rate of less than 50%) |  |

Reference: patent US11603350B2, “Compound, composition, cured object, optically anisotropic body, and reflective film” (FUJIFILM Corporation, priority 2016, dated 2023)
